From patent US20250302783A1, “SYMPATHETIC NERVE ACTIVATION AGENT AND SYMPATHETIC NERVE ACTIVATION COMPOSITION” (MARUZEN PHARMACEUTICALS CO., LTD., priority 2022, published 2025)

Columns and labels:
Assay type in all cases: in vivo, rat
[1] = test system: distal branches of the sympathetic nerve innervating the interscapular brown adipose tissue; assay: Brown adipose tissue sympathetic nerve activity (BAT-SNA) after intragastric administration, Test Example 1; details: urethane-anesthetized male rats, measured for 60 minutes, FIG. 2
Description: (§1) The effect of the intragastric administration of the compound represented by Structural Formula (1) on the activity of the sympathetic nerve innervating the white adipose tissue, the brown adipose tissue, the adrenal gland, or the liver was tested in the following manner. For the experiment, male Whistar rats (approximately 9 weeks old) each having a body weight of approximately 300 g were kept in a 24° C. thermostatic animal room for 1 week or longer with a 12-hour light-dark cycle (lighting from 8:00 to 20:00). On the day of the experiment, the rats were fasted for 3 hours, followed by anesthetizing with urethane. A cannula for intragastric administration was inserted into each of the rats, and then distal branches of the sympathetic nerve innervating the right epididymal white adipose tissue, the interscapular brown adipose tissue, the left adrenal gland, or the liver were lifted with a silver electrode, and the electrical activity thereof was measured. When the measurement value stabilized (at approximately 13:00), an aqueous solution of the compound represented by Structural Formula (1) (produced by Tokyo Chemical Industry Co., Ltd.) was intragastrically administered using the cannula at a dose of 15 mg/0.5 mL/300 g of body weight, 1.5 mg/0.5 mL/300 g of body weight, 0.15 mg/0.5 mL/300 g of body weight, or 0.015 mg/0.5 mL/300 g of body weight, and the change in the neural activity of the distal branches of the above sympathetic nerves was measured electrophysiologically for 60 minutes. In addition, as a control, water serving as a solvent was intragastrically administered using the cannula at a dose of 0.5 mL/300 g of body weight, and the change in the neural activity of the distal branches of the above sympathetic nerves was measured electrophysiologically for 60 minutes. […] The data of the neural activity was analyzed as the mean value of the firing rate per 5 seconds (pulse/5 s) every 5 minutes, and represented by a percentage relative to the mean value (a value at 0 minutes) at 5 minutes before the onset of stimulation being determined as 100%. […]

[2] = test system: distal branches of the sympathetic nerve innervating the right epididymal white adipose tissue; assay: White adipose tissue sympathetic nerve activity (WAT-SNA) after intragastric administration, Test Example 1; details: urethane-anesthetized male rats, measured for 60 minutes, FIG. 1
Description: The effect of the intragastric administration of the compound represented by Structural Formula (1) on the activity of the sympathetic nerve innervating the white adipose tissue, the brown adipose tissue, the adrenal gland, or the liver was tested in the following manner. For the experiment, male Whistar rats (approximately 9 weeks old) each having a body weight of approximately 300 g were kept in a 24° C. thermostatic animal room for 1 week or longer with a 12-hour light-dark cycle (lighting from 8:00 to 20:00). On the day of the experiment, the rats were fasted for 3 hours, followed by anesthetizing with urethane. A cannula for intragastric administration was inserted into each of the rats, and then distal branches of the sympathetic nerve innervating the right epididymal white adipose tissue, the interscapular brown adipose tissue, the left adrenal gland, or the liver were lifted with a silver electrode, and the electrical activity thereof was measured. […] In addition, as a control, water serving as a solvent was intragastrically administered using the cannula at a dose of 0.5 mL/300 g of body weight, and the change in the neural activity of the distal branches of the above sympathetic nerves was measured electrophysiologically for 60 minutes. […]

[3] = test system: distal branches of the sympathetic nerve innervating the left adrenal gland; assay: Adrenal sympathetic nerve activity (ASNA) after intragastric administration, Test Example 1; details: urethane-anesthetized male rats, measured for 60 minutes, FIG. 3
Description: The effect of the intragastric administration of the compound represented by Structural Formula (1) on the activity of the sympathetic nerve innervating the white adipose tissue, the brown adipose tissue, the adrenal gland, or the liver was tested in the following manner. For the experiment, male Whistar rats (approximately 9 weeks old) each having a body weight of approximately 300 g were kept in a 24° C. thermostatic animal room for 1 week or longer with a 12-hour light-dark cycle (lighting from 8:00 to 20:00). On the day of the experiment, the rats were fasted for 3 hours, followed by anesthetizing with urethane. A cannula for intragastric administration was inserted into each of the rats, and then distal branches of the sympathetic nerve innervating the right epididymal white adipose tissue, the interscapular brown adipose tissue, the left adrenal gland, or the liver were lifted with a silver electrode, and the electrical activity thereof was measured. When the measurement value stabilized (at approximately 13:00), an aqueous solution of the compound represented by Structural Formula (1) (produced by Tokyo Chemical Industry Co., Ltd.) was intragastrically administered using the cannula at a dose of 15 mg/0.5 mL/300 g of body weight, 1.5 mg/0.5 mL/300 g of body weight, 0.15 mg/0.5 mL/300 g of body weight, or 0.015 mg/0.5 mL/300 g of body weight, and the change in the neural activity of the distal branches of the above sympathetic nerves was measured electrophysiologically for 60 minutes. In addition, as a control, water serving as a solvent was intragastrically administered using the cannula at a dose of 0.5 mL/300 g of body weight, and the change in the neural activity of the distal branches of the above sympathetic nerves was measured electrophysiologically for 60 minutes. […] The data of the neural activity was analyzed as the mean value of the firing rate per 5 seconds (pulse/5 s) every 5 minutes, and represented by a percentage relative to the mean value (a value at 0 minutes) at 5 minutes before the onset of stimulation being determined as 100%. FIG. 3 illustrates, as a percentage with respect to the mean value (a value at 0 minutes) at 5 minutes before the onset of stimulation being determined as 100%, the result of the change in the neural activity of distal branches of the sympathetic nerves for the adrenal gland (adrenal sympathetic nerve activity, ASNA) when the aqueous solution including 15 mg, 1.5 mg, 0.15 mg, or 0.015 mg of the compound represented by Structural Formula (1) was intragastrically administered at a dose of 0.5 mL/300 g of body weight, or water serving as the solvent was intragastrically administered at a dose of 0.5 mL/300 g of body weight.

[4] = test system: distal branches of the sympathetic nerve innervating the liver; assay: Hepatic sympathetic nerve activity (Hepatic-SNA) after intragastric administration, Test Example 1; details: urethane-anesthetized male rats, measured for 60 minutes, FIG. 4
Description: as §1

[5] = 0.15 mg/0.5 mL/300 g of body weight
[6] = 1.5 mg/0.5 mL/300 g of body weight
[7] = 15 mg/0.5 mL/300 g of body weight

Q: How did the “change in brown adipose tissue sympathetic nerve activity (BAT-SNA) versus water control” value (“change … (BAT-SNA) versus water control” for short) [1, 5] turn out when `COc1cc(CCC(=O)O)ccc1O` [3-(4-hydroxy-3-methoxyphenyl) propionic acid] was run?
A: higher than the BAT-SNA value of the group to which water serving as the solvent was administered

Q: And the “change … (BAT-SNA) versus water control” value [1, 6]?
A: higher than the BAT-SNA value of the group to which water serving as the solvent was administered

Q: And the “change … (BAT-SNA) versus water control” value [1, 7]?
A: higher than the BAT-SNA value of the group to which water serving as the solvent was administered

Q: And the “change in white adipose tissue sympathetic nerve activity (WAT-SNA) versus water control” value [2, 6]?
A: higher than the WAT-SNA value of the group to which water serving as the solvent was administered

Q: And the “change in white adipose tissue sympathetic nerve activity (WAT-SNA) versus water control” value [2, 7]?
A: higher than the WAT-SNA value of the group to which water serving as the solvent was administered

Q: What about the “change in adrenal sympathetic nerve activity (ASNA) versus water control” value (from here on “change … (ASNA) versus water control”) ([3]; 0.015 mg/0.5 mL/300 g of body weight) of the same molecule?
A: higher than the ASNA value of the group to which water serving as the solvent was administered

Q: What about the “change … (ASNA) versus water control” value [3, 5] of the same molecule?
A: higher than the ASNA value of the group to which water serving as the solvent was administered

Q: And the “change … (ASNA) versus water control” value [3, 6]?
A: higher than the ASNA value of the group to which water serving as the solvent was administered

Q: And the “change … (ASNA) versus water control” value [3, 7]?
A: higher than the ASNA value of the group to which water serving as the solvent was administered

Q: What about the “change in hepatic sympathetic nerve activity (Hepatic-SNA) versus water control” value (“change … (Hepatic-SNA) versus water control” below) [4, 5] of the same molecule?
A: higher than the Hepatic-SNA value of the group to which water serving as the solvent was administered

Q: And the “change … (Hepatic-SNA) versus water control” value [4, 6]?
A: higher than the Hepatic-SNA value of the group to which water serving as the solvent was administered

Q: And the “change … (Hepatic-SNA) versus water control” value [4, 7]?
A: higher than the Hepatic-SNA value of the group to which water serving as the solvent was administered
